Columns and labels:
[1] = Rodent pharmacokinetic study; type: in vivo, Male Wistar rats; conditions: male, Wistar, rat, plasma; for bioavailability: oral 3 mg/kg vs i.v. 1 mg/kg
Description: Rodent Pharmacokinetic Study
Male Wistar rats (260±50 grams) were used as experimental animals. Animals were housed individually in polypropylene cage. Two days prior to study, male Wistar rats were anesthetized with isoflurane for surgical placement of jugular vein catheter. Rats were randomly divided for oral (3 mg/kg) and intravenous (i.v) (1 mg/kg) dosing (n=3/group) and fasted overnight before oral dosing (p.o.). However, rats allocated to intravenous (i.v.) dosing food and water was provided ad libitum.
At pre-determined point, blood was collected through jugular vein and replenished with an equivalent volume of normal saline. Collected blood was transferred into a labeled eppendorf tube containing 10 μL of heparin as an anticoagulant. Typically blood samples were collected at following time points: 0.08, 0.25, 0.5, 1, 2, 4, 6, 8, and 24 hours post dose. Blood was centrifuged at 4000 rpm for 10 minutes. Plasma was separated and stored frozen at −80° C. until analysis. The concentrations of the test compounds were quantified in plasma by qualified LC-MS/MS method using suitable extraction technique. The test compounds were quantified in the calibration range around 1-1000 ng/mL in plasma. Study samples were analyzed using calibration samples in the batch and quality control samples spread across the batch.
Pharmacokinetic parameters Cmax, AUCt, T1/2, clearance and bioavailability (F) were calculated by non-compartmental model using standard non-compartmental model by using Phoenix WinNonlin 6.0.2 or 6.0.3 version Software package.

[2] = molecular target: T1, recombinant human Muscarinic M1 receptor (Homo sapiens, UniProt P11229); assay: Allosteric potency EC50 for Muscarinic M1 receptor, CHO pCRE-Luc reporter assay with EC20 of acetylcholine; type: cell-based; conditions: CHO cells, in presence of EC20 of acetylcholine, 4 hours
T1 construct: expressed in transfected cells
T1 sequence (P11229 1-460): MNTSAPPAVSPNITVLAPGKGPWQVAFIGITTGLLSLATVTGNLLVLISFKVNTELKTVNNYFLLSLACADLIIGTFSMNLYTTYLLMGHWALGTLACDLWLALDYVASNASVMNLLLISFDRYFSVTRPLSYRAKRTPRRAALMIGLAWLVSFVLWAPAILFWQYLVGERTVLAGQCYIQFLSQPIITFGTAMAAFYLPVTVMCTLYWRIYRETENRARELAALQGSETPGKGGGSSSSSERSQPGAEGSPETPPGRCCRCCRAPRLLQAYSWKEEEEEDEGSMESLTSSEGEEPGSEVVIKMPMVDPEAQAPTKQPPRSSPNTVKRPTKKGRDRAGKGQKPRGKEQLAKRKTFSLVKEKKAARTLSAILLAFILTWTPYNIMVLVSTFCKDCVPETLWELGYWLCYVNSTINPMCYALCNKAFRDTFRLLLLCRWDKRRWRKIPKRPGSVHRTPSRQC
Description: Determination of Allosteric Potency EC50 Values for Muscarinic M1 Receptor:
A stable CHO cell line expressing recombinant human Muscarinic M1 receptor and pCRE-Luc reporter system was used for cell-based assay. The assay offers a non-radioactive based approach to determine binding of a compound to GPCRs. In this specific assay, the level of intracellular cyclic AMP which is modulated by activation or inhibition of the receptor is measured. The recombinant cells harbor luciferase reporter gene under the control of cAMP response element.
The above cells were grown in 96 well clear bottom white plates in Hams F12 medium containing 10% fetal bovine serum (FBS). Prior to the addition of compounds or standard agonist, cells were serum starved overnight. Increasing concentrations of test compounds were added along with EC20 of acetylcholine in OptiMEM medium to the cells. The incubation was continued at 37° C. in CO2 incubator for 4 hours. Medium was removed and cells were washed with phosphate buffered saline. The cells were lysed and luciferase activity was measured in a Luminometer. Luminescence counts in each concentrations of test item were normalized to the acetylcholine induced maximum response and the data was analyzed using Graphpad software. EC50 values of the compounds were defined as the concentration required in stimulating the luciferase activity by 50% in presence of EC20 of acetylcholine.

[3] = Rodent brain penetration study; type: in vivo, Male Wistar rats; conditions: male, Wistar, brain and plasma, po; rat, 3 mg/kg, p.o. @ 1.0 hr, brain-plasma ratio; read-out: Single dose Rat Brain Penetration (Cb/Cp)
Description: Rodent Brain Penetration Study
Male Wistar rats (260±40 grams) were used as experimental animals. Three animals were housed in each cage. Animals were given water and food ad libitum throughout the experiment and maintained on a 12 hours light/dark cycle.
Brain penetration was determined in discrete manner in rats. One day prior to dosing day, male Wistar rats were acclimatized and randomly grouped according to their weight. At each time point (0.5, 1 and 2 hours) n=3 animals were used.
The test compounds were suitably preformulated and administered orally at (free base equivalent) 3 mg/kg. Blood samples were removed via cardiac puncture by using isoflurane anesthesia. The animals were sacrificed to collect brain tissue. Plasma was separated and brain samples were homogenized and stored frozen at −20° C. until analysis. The concentrations of the test compounds in plasma and brain were determined using LC-MS/MS method.
The test compounds were quantified in plasma and brain homogenate by qualified LC-MS/MS method using suitable extraction technique. The test compounds were quantified in the calibration range of 1-500 ng/mL in plasma and brain homogenate. Study samples were analyzed using calibration samples in the batch and quality control samples spread across the batch.

Male Wistar rats = assay: Object recognition task model; type: in vivo; conditions: rat, p.o.; for Exploration time mean ± S.E.M, Familiar object / Exploration time mean ± S.E.M, Novel object: choice trial T2, 24 hours after T1
Description: Object Recognition Task Model
The cognition enhancing properties of compounds of this invention were estimated by using this model.
Male Wistar rats (8-10 weeks old) were used as experimental animals. Four animals were housed in each cage. Animals were kept on 20% food deprivation from a day prior to experimentation. Water was provided ad libitum throughout the experiment. Animals were maintained on a 12 hours light/dark cycle in temperature and humidity controlled room. The experiment was carried out in a circular or square arena made up of acrylic. Rats were habituated to individual arenas for up to 1 hour in the absence of any objects on day 1.
One group of 12 rats received vehicle and another set of animals received compound of the formula (I), before the familiar (T1) and choice (T2) trials. During the familiarization phase, (T1), the rats were placed individually in the arena for 3 minutes, in which two identical objects (a1 and a2) were positioned 10 cm from the wall. 24 hours after T1, trial for long-term memory test was performed. The same rats were placed in the same arena as they were placed in T1 trial. During the choice phase (T2) rats were allowed to explore the arena for 3 minutes in presence of a copy of familiar object (a3) and one novel object (b). During the T1 and T2 trial, explorations of each object (defined as sniffing, licking, chewing or having moving vibrissae whilst directing the nose towards the object at a distance of less than 1 cm) were recorded using stopwatch.
T1 is the total time spent exploring the familiar objects (a1+a2).
T2 is the total time spent exploring the familiar object and novel object (a3+b).
The object recognition test was performed as described by Ennaceur, A., Delacour, J., 1988, A new one-trial test for neurobiological studies of memory in rats˜Behavioural data, Behav. Brain Res., 31, 47-59.

`O=C(N[C@H]1CCCC[C@@H]1O)c1cc(Cc2ccc(Br)c(F)c2)c2cccnn12` [Example 3, N-(cis-1S,2S-2-Hydroxycyclohexyl)-5-(4-bromo-3-fluorobenzyl)-pyrrolo[1,2-b]pyridazine-7-carboxamide] gave an AUC(0-t) ([1]; iv, i.v. 1 mg/kg) of 951 ± 213 ng·h/mL, a half-life ([1]; iv, i.v. 1 mg/kg) of 3.5 ± 1.1 h and a clearance ([1]; iv, i.v. 1 mg/kg) of 17 ± 3 mL/min/kg. The bioavailability [1] was 49 ± 27%, the AUC(0-t) ([1]; oral 3 mg/kg) was 1390 ± 780 ng·h/mL and the Cmax ([1]; oral 3 mg/kg) was 132 ± 31 ng/mL. For the same compound, the half-life ([1]; oral 3 mg/kg) was 3.6 ± 0.2 h, the EC50 [2] was 653 nM and the Kp at 1 h [3] was 1.9 ± 0.27.
With `O=C(N[C@H]1CCCC[C@@H]1O)c1cc(Cc2ccc3c(c2)CCO3)c2cccnn12` [Example 4, N-(cis-1S,2S-2-Hydroxycyclohexyl)-5-(2,3-dihydrobenzofuran-5-ylmethyl)-pyrrolo[1,2-b]pyridazine-7-carboxamide] the AUC(0-t) ([1]; iv, i.v. 1 mg/kg) was 599 ± 58 ng·h/mL, the half-life ([1]; iv, i.v. 1 mg/kg) was 2.4 ± 0.9 h and the clearance ([1]; iv, i.v. 1 mg/kg) was 27 ± 3.4 mL/min/kg. It also gave a bioavailability [1] of 25 ± 4%, an AUC(0-t) ([1]; oral 3 mg/kg) of 457 ± 73 ng·h/mL and a Cmax ([1]; oral 3 mg/kg) of 105 ± 3 ng/mL. For the same compound, the half-life ([1]; oral 3 mg/kg) was 3.9 ± 1.4 h, the EC50 [2] was 836 nM and the Kp at 1 h [3] was 1.31 ± 0.11.
With `COc1ccc(Cc2cc(C(=O)N[C@H]3CCCC[C@@H]3O)n3ncccc23)cc1` [Example 20, N-(cis-1S,2S-2-Hydroxycyclohexyl)-5-(4-methoxybenzyl)-pyrrolo[1,2-b]pyridazine-7-carboxamide] the AUC(0-t) ([1]; iv, i.v. 1 mg/kg) was 1380 ± 390 ng·h/mL, the half-life ([1]; iv, i.v. 1 mg/kg) was 2.7 ± 0.8 h and the clearance ([1]; iv, i.v. 1 mg/kg) was 12.2 ± 3.1 mL/min/kg. For the same compound, the bioavailability [1] was 39 ± 3%, the AUC(0-t) ([1]; oral 3 mg/kg) was 1610 ± 139 ng·h/mL and the Cmax ([1]; oral 3 mg/kg) was 402 ± 98 ng/mL. The half-life ([1]; oral 3 mg/kg) was 3.4 ± 0.7 h, the Inference (Male Wistar rats; 1 mg/kg) was “Active” and the “Exploration time mean ± S.E.M, Familiar object” value (Male Wistar rats; 1 mg/kg) was 10.31 ± 1.07 s. For the same compound, the “Exploration time mean ± S.E.M, Novel object” value (Male Wistar rats; 1 mg/kg) was 14.92 ± 1.11 s, the EC50 [2] was 1340 nM and the Kp at 1 h [3] was 1.52 ± 0.15.
In the case of `O=C(N[C@H]1CCCC[C@@H]1O)c1cc(Cc2ccc(-n3cccn3)cc2)c2cccnn12` [Example 21, N-(cis-1S,2S-2-Hydroxycyclohexyl)-5-(4-pyrazol-1-ylbenzyl)-pyrrolo[1,2-b]pyridazine-7-carboxamide], the AUC(0-t) ([1]; iv, i.v. 1 mg/kg) is reported as 3700 ± 768 ng·h/mL, the half-life ([1]; iv, i.v. 1 mg/kg) is reported as 2.5 ± 0.7 h and the clearance ([1]; iv, i.v. 1 mg/kg) is reported as 4.6 ± 0.9 mL/min/kg. It also gave a bioavailability [1] of 49 ± 12%, an AUC(0-t) ([1]; oral 3 mg/kg) of 5470 ± 1370 ng·h/mL and a Cmax ([1]; oral 3 mg/kg) of 687 ± 169 ng/mL. The half-life ([1]; oral 3 mg/kg) was 3.4 ± 1.01 h, the EC50 [2] was 179 nM and the Kp at 1 h [3] was 0.24 ± 0.02.
Compound `Cn1cc(-c2ccc(Cc3cc(C(=O)N[C@H]4CCCC[C@@H]4O)n4ncccc34)cc2F)cn1` [Example 33, N-(cis-1S,2S-2-Hydroxycyclohexyl)-5-[3-fluoro-4-(1-methyl-1H-pyrazol-4-yl)-benzyl]-pyrrolo[1,2-b]pyridazine-7-carboxamide] has an AUC(0-t) ([1]; iv, i.v. 1 mg/kg) of 908 ± 164 ng·h/mL, a half-life ([1]; iv, i.v. 1 mg/kg) of 1.3 ± 0.2 h and a clearance ([1]; iv, i.v. 1 mg/kg) of 19 ± 3.8 mL/min/kg. It also gave a bioavailability [1] of 103 ± 0.7%, an AUC(0-t) ([1]; oral 3 mg/kg) of 2820 ± 20 ng·h/mL and a Cmax ([1]; oral 3 mg/kg) of 414 ± 21 ng/mL. It also gave a half-life ([1]; oral 3 mg/kg) of 2.7 ± 0.1 h, an EC50 [2] of 259 nM and a Kp at 1 h [3] of 0.2 ± 0.001.
`Cn1cc(-c2ccc(Cc3cc(C(=O)N[C@H]4CCCC[C@@H]4O)n4ncccc34)c(F)c2)cn1` [Example 34, N-(cis-1S,2S-2-Hydroxycyclohexyl)-5-[2-fluoro-4-(1-methyl-1H-pyrazol-4-yl)-benzyl]-pyrrolo[1,2-b]pyridazine-7-carboxamide] gave an AUC(0-t) ([1]; iv, i.v. 1 mg/kg) of 3230 ± 625 ng·h/mL, a half-life ([1]; iv, i.v. 1 mg/kg) of 3.7 ± 0.3 h and a clearance ([1]; iv, i.v. 1 mg/kg) of 5 ± 0.7 mL/min/kg. For the same compound, the bioavailability [1] was 66 ± 3%, the AUC(0-t) ([1]; oral 3 mg/kg) was 6390 ± 312 ng·h/mL and the Cmax ([1]; oral 3 mg/kg) was 793 ± 86 ng/mL. The half-life ([1]; oral 3 mg/kg) was 4.4 ± 2.3 h, the Inference (Male Wistar rats; 0.3 mg/kg) was “Active” and the “Exploration time mean ± S.E.M, Familiar object” value (Male Wistar rats; 0.3 mg/kg) was 10.35 ± 1.75 s. The “Exploration time mean ± S.E.M, Novel object” value (Male Wistar rats; 0.3 mg/kg) was 15.63 ± 3.23 s, the EC50 [2] was 989 nM and the Kp at 1 h [3] was 0.13 ± 0.02.
`Cn1cc(-c2ccc(Cc3cc(C(=O)NC4CCOCC4O)c4c(F)cccn34)cc2)cn1` (stereo not drawn) [Example 49, N-(3-Hydroxytetrahydropyran-4-yl)-3-(4-(1-methyl-1H-pyrazol-4-yl)-benzyl)-8-fluoroindolizine-1-carboxamide] showed an EC50 [2] of 1210 nM.
For `Cn1cc(-c2ccc(Cc3cc(C(=O)NC4CCOCC4)c4c(F)cccn34)cc2)cn1` [Example 50, N-(Tetrahydropyran-4-yl)-3-(4(1-methyl-1H-pyrazol-4-yl)-benzyl)-8-fluoroindolizine-1-carboxamide], the EC50 [2] was 2530 nM.
For `Cn1cc(-c2ccc(Cc3cc(C(=O)NC4COCCC4O)c4c(F)cccn34)cc2)cn1` (stereo not drawn) [Example 51, N-(4-Hydroxytetrahydropyran-3-yl)-3-(4-(1-methyl-1H-pyrazol-4-yl)-benzyl)-8-fluoroindolizine-1-carboxamide], the EC50 [2] was 3650 nM.
